Measurements as given in PMC5749703, “Isolation and characterization of a novel metagenomic enzyme capable of degrading bacterial phytotoxin toxoflavin” (PLoS ONE, 2018).

Tested on: T1, TxeA
T1 construct: no evidence of oligomer
Test: toxoflavin degradation, initial velocities (HPLC)
Type: biochemical, uncultured bacterium
Details: pH 5.0, 20°C; Mn2+, DTT and oxygen required (DTT reduces toxoflavin to dihydrotoxoflavin)
Procedure: toxoflavin degradation, initial velocities (HPLC) on TxeA | apparent binding constants of substrate (KM) and catalytic efficiency (kcat/KM) for TxeA were determined

For `Cn1ncnc2c(=O)n(C)c(=O)nc1-2` [toxoflavin, 1,6-dimethylpyrimido[5,4-e]-1,2,4-triazine-5,7(1H,6H)-dione], the Km was 14 µM.
